Experimental findings from patent publication US7445931B2, “Compositions and methods for enrichment of neural stem cells using ceramide analogs” (Bresagen, Inc., priority 2002, dated 2008) are described below.

For this test, the system named is differentiating ES-J1 cells. Nature of the test: Apoptosis (TUNEL staining, cell death) in differentiating mouse ES cells incubated with ceramide analogs. The format is cell-based. Particulars: for number of TUNEL stained cells: 15 hours with 75 μM S16 or S18, or 35 μM C2-ceramide. On the procedure:
In vitro neural differentiation of mouse ES cells (ES-J1, ES-D3) followed a serum deprivation protocol as described previously (Hancock, et al., 2000 Biochem. Biophys. Res. Commun., 271: 418-421). The differentiation stages are outlined in FIG. 2. Briefly, ES cells were grown on gamma-irradiated feeder fibroblasts for four days in Knockout DMEM/15% Knockout serum replacement, supplemented with ESGRO (LIF; Chemicon; Cat No. ESG1106) at a concentration of 10^3 units/ml medium. ES cells were then grown for another four days on gelatin-coated bacterial culture dishes without a fibroblast feeder layer, and were then grown for three days in Knockout DMEM/15% heat-inactivated ES qualified Fetal Bovine Serum, supplemented with 10^3 units LIF per ml of medium. Upon trypsinization, ES cells were transferred to bacterial culture dishes without gelatin, and embryoid body (EB) formation was induced for four days in Knockout DMEM/10% heat-inactivated ES qualified FBS without LIF (EB4 stage). On the fifth day, floating and loosely attached EBs were rinsed off and transferred to tissue culture dishes. The EBs were allowed to attach to the tissue culture dish surface by incubation for another 24 hours in Knockout DMEM with 10% heat-inactivated ES qualified fetal bovine serum. Neural differentiation due to serum deprivation was induced by cultivation of the EBs for three days in DME/12 (50/50), supplemented with 1×N2 (Invitrogen/Life Technologies; Cat No. 17502, dilution of 1:100) but without serum (EB8 stage). Serum-deprived EBs were then trypsinized, plated on poly-L-ornithine/laminin-coated tissue culture dishes and grown for four days in DMEM/F12 (50/50), supplemented with N2 and 10 ng/ml FGF-2, but without serum. This incubation period is referred to as neuroprogenitor (NP) stage due to commitment of neuroepithelial precursor cells to neuroprogenitor cells, and/or due to the selective expansion of neural progenitor cells in the FGF-2 containing serum-free medium. These cells have committed during the EB stages and were expanded during the NP stage. NPs grown for 48 hours upon replating of trypsinized EBs were referred to as the NP2 stage. On the fifth day of NP formation, the medium was changed to Neurobasal (Invitrogen/Life Technologies; Cat No. 21103-049), with 5% heat-inactivated FBS, and the cells were incubated for another seven days. During this time, NPs fully differentiate to glial cells and neurons. Cells cultured for 24 hours or 96 hours upon changing the medium were referred to as the D1 or D4 stage, respectively.
ES cells were cultured and differentiated to the EB4, EB8, NP2, or D4 stage following the protocol as described above. The ceramide analog S18 was dissolved in ethanol at a concentration of 100 mM and then added to the cells at a final concentration of 75 μM in medium. The cells at the EB8 stage were incubated for 48 hours in the presence of the ceramide analog and were then transplanted into mouse brains.
Differentiating ES cells were grown on cover slips and fixed with 4% paraformaldehyde in phosphate-buffered saline (PBS). Fixed cells were permeabilized with 0.5% Triton X-100 in PBS for 5 minutes at room temperature and unspecific binding sites were saturated by incubation with 3% ovalbumin in PBS for 1 hour at 37° C. The cover slips were then incubated with 5 μg/ml primary antibody (anti-ceramide clone 15B4 mouse IgM, Alexis; anti-PAR-4 rabbit IgG, Santa Cruz; anti-PCNA rabbit IgG, Santa Cruz; anti-nestin clone 401 rat IgG, BD Pharmingen) in 0.1% ovalbumin/PBS, followed by incubation with the appropriate fluorescence-labeled secondary antibody (5 μg/ml Alexa 546 conjugated anti-mouse IgG, Molecular Probes; Alexa 488 conjugated anti-rabbit IgG, Molecular Probes, Cy3 conjugated anti-mouse IgM, Jackson) for 2 hours at 37° C. The nuclei were stained by treatment with 2 μg/ml Hoechst 33258 in PBS for 30 minutes at room temperature. […]

As to `CCCCCCCC/C=C\CCCCCCCC(=O)NC(CO)CO` [S18, N-(2-hydroxy-1-(hydroxymethyl)ethyl)-oleoylamide], the cell death result (EB8 and NP2 stages, 20 hours with 75 μM S18) is on record as “high degree of cell death”. The “number of TUNEL stained cells” value (EB8 stage) was found to be 45±10% and the “number of TUNEL stained cells” value (NP2 stage) was found to be 70±10%. The “effect on differentiated neurons (cell death)” value (differentiated neurons, 20 hours with 75 μM S18) is “unaffected”.
